# Results: patent US9326506B2, “Preparation method, agricultural composition and applications of natural brassinolide analogs” (CHENGDU NEWSUN CROPSCIENCE CO., LTD, priority 2012, dated 2016)
# Tests used:
# rice seed = experiment: Salt tolerance assay: germination of rice seed under high salt environment; assay type: in vivo
# Source text: According to a salt tolerance assay, we measured germination of rice seed under high salt environment to determine effects of the natural brassinolide analogues on the salt tolerance of a plant.
# The natural brassinolide analogues, BR1, BR2, BR3, BR4, BR5 and BR6, used herein, were those prepared by the method of Example 1. And BR1, BR2, BR3, BR4, BR5 and BR6 were mixed into a mixture of brassinolide analogues (referred to as “BRs”, in which the weight ratio of BR1:BR2:BR3:BR4:BR5:BR6 is 0.4:0.4:0.4:0.4:0.4:98). Respectively the analogues and the mixture were dissolved into 95% (V/V) ethanol solution, and then diluted with pure water to 1 mg/L, 0.1 mg/L, 0.01 mg/L, 0.001 mg/L and 0.0001 mg/L. In addition, pure water was used as a control. Furthermore, NaCl was added to the above solutions containing different concentrations of the natural brassinolide analogues or pure water respectively, and the concentrations of the salt are 300, 400, 500 and 600 mg/L respectively.
# After rice seeds were disinfected by using 5% sodium hypochlorite solution treatment, they were rinsed with distilled water until their pH>7, placed into a petri dish in a dark incubator, and cultured at 30° C.±2° C. by using the above solutions containing different concentrations of the natural brassinolide analogues or pure water for observing the germination and calculating germination rates. The results are shown in tables 4-0˜4-4, which indicate that relative to the control, each of the natural brassinolide analogues and the mixture were capable of increasing germination rates of rice under high salt environment so as to enhance the salt tolerance of a plant; and substantially the enhancement of the germination rates was positively correlated to the concentrations of the natural brassinolide analogues and the mixture.
# rice = experiment: Rice leaf bending assay (leaf inclination angle); assay type: in vivo; details: for Average angle / Total angle: 48 hr; for Total angle: sum of 20 rice
# Source text: According to a rice leaf bending assay, we measured leaf inclination angle of rice to determine effects of the natural brassinolide analogues on the enhancement of plant development. The larger the leaf inclination angle of rice, the more effects on plant development. The detailed assay procedure is as follows:
# The natural brassinolide analogues, BR1, BR2, BR3, BR4, BR5 and BR6, used herein, were those prepared by the method of Example 1. And BR1, BR2, BR3, BR4, BR5 and BR6 were mixed into a mixture of brassinolide analogues (referred to as “BRs”, in which the weight ratio of BR1:BR2:BR3:BR4:BR5:BR6 is 0.4:0.4:0.4:0.4:0.4:98). Respectively the analogues and the mixture were dissolved into 95% (V/V) ethanol solution, and then diluted with pure water to 1 mg/L, 0.1 mg/L, 0.01 mg/L, 0.001 mg/L and 0.0001 mg/L. In addition, pure water was used as a control.
# After rice seeds were disinfected by using 5% sodium hypochlorite solution treatment, they were rinsed with distilled water until their pH>7, placed into a petri dish in a dark incubator, and cultured by using water at 30° C.±2° C. for 9 days. Then the nine-day-old etiolated seedlings of rice were cut around the center of the base of second leaf to segments with 1 cm leaf and 1 cm leaf sheath. The leaf segments were floated in distilled water, placed in a dark incubator, cultured at 30° C.±2° C. for 24 hr, and then dried by a filter paper. The dried leaf segments were respectively immersed in the above solutions containing different concentrations of the natural brassinolide analogues or pure water, and cultured in a dark incubator at 30° C.±2° C. for 48 hr. Every solution or pure water contained the leaf segments from 20 rice. Then the inclination angle between the second leaf and the leaf sheath of the leaf segments was measured by a protractor.
# [1] = sample 0.0001 mg/l, salt 300 mg/l
# [2] = sample 0.0001 mg/l, salt 400 mg/l
# [3] = sample 0.0001 mg/l, salt 500 mg/l
# [4] = sample 0.0001 mg/l, salt 600 mg/l
# [5] = sample 0.001 mg/l, salt 300 mg/l
# [6] = sample 0.001 mg/l, salt 400 mg/l
# [7] = sample 0.001 mg/l, salt 500 mg/l
# [8] = sample 0.001 mg/l, salt 600 mg/l
# [9] = sample 0.01 mg/l, salt 300 mg/l
# [10] = sample 0.01 mg/l, salt 400 mg/l
# [11] = sample 0.01 mg/l, salt 500 mg/l
# [12] = sample 0.01 mg/l, salt 600 mg/l
compound,measurement,setting,value
C=C(C(C)C)[C@@H](O)[C@H](O)[C@@H](C)[C@H]1CCC2C3COC(=O)C4C[C@H](O)[C@H](O)C[C@]4(C)C3CC[C@@]21C (stereo partly shown) [BR3],Germination rate,rice seed; [1],50%
same,Germination rate,rice seed; [2],45%
same,Germination rate,rice seed; [3],39%
same,Germination rate,rice seed; [4],32%
same,Germination rate,rice seed; [5],50%
same,Germination rate,rice seed; [6],43%
same,Germination rate,rice seed; [7],40%
same,Germination rate,rice seed; [8],33%
same,Germination rate,rice seed; [9],51%
same,Germination rate,rice seed; [10],50%
same,Germination rate,rice seed; [11],47%
same,Germination rate,rice seed; [12],39%
same,Germination rate,"rice seed; sample 0.1 mg/l, salt 300 mg/l",50%
same,Germination rate,"rice seed; sample 0.1 mg/l, salt 400 mg/l",50%
same,Germination rate,"rice seed; sample 0.1 mg/l, salt 500 mg/l",41%
same,Germination rate,"rice seed; sample 0.1 mg/l, salt 600 mg/l",38%
same,Germination rate,"rice seed; sample 1 mg/l, salt 300 mg/l",52%
same,Germination rate,"rice seed; sample 1 mg/l, salt 400 mg/l",46%
same,Germination rate,"rice seed; sample 1 mg/l, salt 500 mg/l",40%
same,Germination rate,"rice seed; sample 1 mg/l, salt 600 mg/l",38%
same,Average angle,rice; 0.0001 mg/l,3.84 degree
same,Total angle,rice; 0.0001 mg/l,76.8 degree
same,Average angle,rice; 0.001 mg/l,6.8 degree
same,Total angle,rice; 0.001 mg/l,136 degree
same,Average angle,rice; 0.01 mg/l,12.15 degree
same,Total angle,rice; 0.01 mg/l,243 degree
same,Average angle,rice; 0.1 mg/l,21 degree
same,Total angle,rice; 0.1 mg/l,420 degree
same,Average angle,rice; 1 mg/l,65.3 degree
same,Total angle,rice; 1 mg/l,1306 degree
CC(C)[C@H](C)[C@@H](O)[C@H](O)[C@@H](C)[C@H]1CCC2C3CC(=O)C4C[C@H](O)CC[C@]4(C)C3CC[C@@]21C (stereo partly shown) [BR4],Germination rate,rice seed; [1],50%
same,Germination rate,rice seed; [2],47%
same,Germination rate,rice seed; [3],42%
same,Germination rate,rice seed; [4],36%
same,Germination rate,rice seed; [5],51%
same,Germination rate,rice seed; [6],49%
same,Germination rate,rice seed; [7],43%
same,Germination rate,rice seed; [8],37%
same,Germination rate,rice seed; [9],55%
same,Germination rate,rice seed; [10],52%
same,Germination rate,rice seed; [11],47%
same,Germination rate,rice seed; [12],39%
same,Germination rate,"rice seed; sample 0.1 mg/l, salt 300 mg/l",58%
same,Germination rate,"rice seed; sample 0.1 mg/l, salt 400 mg/l",50%
same,Germination rate,"rice seed; sample 0.1 mg/l, salt 500 mg/l",49%
same,Germination rate,"rice seed; sample 0.1 mg/l, salt 600 mg/l",40%
same,Germination rate,"rice seed; sample 1 mg/l, salt 300 mg/l",60%
same,Germination rate,"rice seed; sample 1 mg/l, salt 400 mg/l",55%
same,Germination rate,"rice seed; sample 1 mg/l, salt 500 mg/l",50%
same,Germination rate,"rice seed; sample 1 mg/l, salt 600 mg/l",41%
same,Average angle,rice; 0.0001 mg/l,3.8 degree
same,Total angle,rice; 0.0001 mg/l,76 degree
same,Average angle,rice; 0.001 mg/l,6.5 degree
same,Total angle,rice; 0.001 mg/l,130 degree
same,Average angle,rice; 0.01 mg/l,12.25 degree
same,Total angle,rice; 0.01 mg/l,245 degree
same,Average angle,rice; 0.1 mg/l,21.4 degree
same,Total angle,rice; 0.1 mg/l,428 degree
same,Average angle,rice; 1 mg/l,64 degree
same,Total angle,rice; 1 mg/l,1280 degree
CC(C)C[C@@H](O)[C@H](O)[C@@H](C)[C@H]1CCC2C3CC(=O)C4C[C@H](O)[C@H](O)C[C@]4(C)C3CC[C@@]21C (stereo partly shown) [BR5],Germination rate,"rice seed; rice seed, sample 0.0001 mg/l, salt (NaCl) 300 mg/l",50%
same,Germination rate,"rice seed; rice seed, sample 0.0001 mg/l, salt (NaCl) 400 mg/l",48%
same,Germination rate,"rice seed; rice seed, sample 0.0001 mg/l, salt (NaCl) 500 mg/l",42%
same,Germination rate,"rice seed; rice seed, sample 0.0001 mg/l, salt (NaCl) 600 mg/l",36%
same,Germination rate,"rice seed; rice seed, sample 0.001 mg/l, salt (NaCl) 300 mg/l",52%
same,Germination rate,"rice seed; rice seed, sample 0.001 mg/l, salt (NaCl) 400 mg/l",49%
same,Germination rate,"rice seed; rice seed, sample 0.001 mg/l, salt (NaCl) 500 mg/l",45%
same,Germination rate,"rice seed; rice seed, sample 0.001 mg/l, salt (NaCl) 600 mg/l",38%
same,Germination rate,"rice seed; rice seed, sample 0.01 mg/l, salt (NaCl) 300 mg/l",56%
same,Germination rate,"rice seed; rice seed, sample 0.01 mg/l, salt (NaCl) 400 mg/l",51%
same,Germination rate,"rice seed; rice seed, sample 0.01 mg/l, salt (NaCl) 500 mg/l",47%
same,Germination rate,"rice seed; rice seed, sample 0.01 mg/l, salt (NaCl) 600 mg/l",39%
same,Germination rate,"rice seed; rice seed, sample 0.1 mg/l, salt (NaCl) 300 mg/l",58%
same,Germination rate,"rice seed; rice seed, sample 0.1 mg/l, salt (NaCl) 400 mg/l",52%
same,Germination rate,"rice seed; rice seed, sample 0.1 mg/l, salt (NaCl) 500 mg/l",43%
same,Germination rate,"rice seed; rice seed, sample 0.1 mg/l, salt (NaCl) 600 mg/l",40%
same,Germination rate,"rice seed; rice seed, sample 1 mg/l, salt (NaCl) 300 mg/l",62%
same,Germination rate,"rice seed; rice seed, sample 1 mg/l, salt (NaCl) 400 mg/l",55%
same,Germination rate,"rice seed; rice seed, sample 1 mg/l, salt (NaCl) 500 mg/l",50%
same,Germination rate,"rice seed; rice seed, sample 1 mg/l, salt (NaCl) 600 mg/l",42%
same,Average angle,rice; 0.0001 mg/l,3.9 degree
same,Total angle,rice; 0.0001 mg/l,78 degree
same,Average angle,rice; 0.001 mg/l,9.3 degree
same,Total angle,rice; 0.001 mg/l,186 degree
same,Average angle,rice; 0.01 mg/l,20.05 degree
same,Total angle,rice; 0.01 mg/l,401 degree
same,Average angle,rice; 0.1 mg/l,35 degree
same,Total angle,rice; 0.1 mg/l,700 degree
same,Average angle,rice; 1 mg/l,110 degree
same,Total angle,rice; 1 mg/l,2200 degree
same,Effects on leaf inclination compared among analogues,rice; in the case of high concentrations,"more than those of BR2, BR3 and BR4"
